Assay results taken from US20020076833A1, “Analysis of biological samples utilizing a coated solid phase” (priority 2000, published 2002).

Columns and labels:
Assay type in all cases: cell-based, human
[1] = tested on: membrane GPIIb/IIIa on platelets; test: GPIIb/IIIa assay with fibrinogen-coated microparticles (Example 7); conditions: two minutes
Procedure: 3.7 micron (μm) carboxyl-modified paramagnetic microparticles were coated with Human Fibrinogen which interacts and binds with the complexed form of the platelet membrane surface component glycoproteins GPIIb/GPIIIa (CD41/CD61). The coated particles were re-suspended in phosphate buffered saline (PBS) buffer at 0.5% w/v.
(§1) Whole blood was obtained from a healthy volunteer and collected into a 3.0 mL blood collection tube containing 0.3 μg D-phe-pro-arg-chloromethylketone (PPACK, Dihydrochloride) and 2.1 mL Hanks' Balanced Salt supplemented with 10 mM HEPES, pH 7.4. An aliquot of this whole blood preparation was stimulated with 10 μM adenosine 5′-diphosphate (ADP) for two minutes prior to being tested in the assay. Another aliquot was stimulated with 2 μM adenosine 5′-diphosphate (ADP) for two minutes prior to being tested in the assay, and a final aliquot was not treated with ADP.
To a set of 5 μL, 10 μL, and 20 μL of each of the above three sample preparations 20 μL of FITC-labeled anti-IIb/IIIa (anti-CD41a) mouse monoclonal antibody (at 20 μg/mL) was added. The mixture was incubated for 10 minutes at room temperate at which point 50 μL of 0.5% (w/v) paramagnetic microparticles (3.7 micron (μm)) coated with Fibrinogen was added. The mixtures were incubated at room temperature for an additional 10 minutes. The microparticles were separated magnetically and the supernatant was removed. The microparticles were washed by re-suspension in 200 μL of PBS supplemented with 1% bovine serum albumin (BSA), followed by magnetic separation of the microparticles and removal of the supernatant. This sequence was repeated three times and the microparticles were re-suspended in 0.1% SDS at pH 11. The microparticles were separated magnetically and the supernatants were transferred to a 96 well plate and examined for fluorescence intensity.

[2] = tested on: membrane P-selectin on platelets; test: 2-Step membrane P-selectin assay in whole blood (Example 6); conditions: 10 μM ADP (with 1.0 uM Epinepherine where named) for two minutes, formalin treated
Procedure: Whole blood was obtained from a healthy volunteer and collected into a sample collection tube containing D-Phe-Pro-Arg-chloromethylketone (PPACK, dihydrochloride). An aliquot of whole blood was stimulated with 10 μM adenosine diphosphate (ADP) and 1.0 uM Epinepherine for two minutes and then treated for two minutes with neutral buffered formalin (1% final concentration). An additional aliquot of whole blood was stimulated with 10 μM ADP for two minutes and then treated for two minutes with neutral buffered formalin. An additional aliquot of whole blood was treated for two minutes with 1% neutral buffered formalin for two minutes without ADP stimulation.
50 μL of 0.5% (w/v) paramagnetic microparticles (3.7 micron (μm)), which were coated with anti-glycoprotein GP1b murine monoclonal antibodies (Mab), were added to 100 μL of each of the above sample preparations. The mixtures were incubated at room temperature for 10 minutes. The microparticles were separated magnetically and the supernatant was removed. The microparticles were washed by re-suspension in 200 μL of PBS supplemented with 1% BSA. The microparticles were again separated magnetically and the supernatant removed. […] The microparticles were separated magnetically and the supernatants transferred to a 96 well plate and examined for fluorescence intensity.

[3] = tested on: membrane-bound P-selectin on platelets; test: 1-Step membrane P-selectin assay in whole blood (Example 5); conditions: 10 μM ADP for two minutes, formalin fixed
Procedure: Whole blood was obtained from a healthy volunteer and collected into a blood collection tube containing D-phe-pro-arg-chloromethylketone (PPACK, Dihydrochloride). An aliquot of whole blood was stimulated with 10 μM adenosine diphosphate (ADP) for two minutes and then fixed for two minutes with neutral buffered formalin (1% final concentration). Another aliquot was not treated with ADP, but only fixed with 1% neutral buffered formalin for two minutes
To 100 μL of each of the above three sample preparations the following reagents were added: 50 μL of FITC-labeled anti-P-selectin (anti-CD62P) rabbit polyclonal antibody (at 20 μg/mL) and 50 μL of 0.5% (w/v) paramagnetic microparticles (3.7 micron (μm)) coated with anti-glycoprotein GPIb (CD42b) murine monoclonal antibody (Mab). The mixtures were incubated at room temperature for either 10 or 15 minutes. The microparticles were separated magnetically and the supernatant was removed. The microparticles were washed by re-suspension in 200 μL of PBS supplemented with 1% bovine serum albumin (BSA) followed by magnetic separation of the microparticles and removal of the supernatant. This sequence was repeated and the microparticles were re-suspended in 0.1% SDS at pH 11. The microparticles were separated magnetically and the supernatants were transferred to a 96 well plate and examined for fluorescence intensity.

[4] = tested on: membrane-bound P-selectin on platelets; test: Membrane P-Selectin assay (Example 8); conditions: two minutes
Procedure: as §1
To a set of 10 μL and 20 μL of each of the above three sample preparations 20 μL of FITC-labeled anti P-Selectin (anti-CD62P) rabbit polyclonal antibody (at 20 μg/mL) was added. The mixture was incubated for 10 minutes at room temperate at which point 50 μL of 0.5% (w/v) paramagnetic microparticles (3.7 micron (μm)) coated with anti-glycoprotein GP1b (CD42b) murine monoclonal antibody (Mab) was added. The mixtures were incubated at room temperature for an additional 10 minutes. The microparticles were separated magnetically and the supernatant was removed. The microparticles were washed by re-suspension in 200 μL of PBS supplemented with 1% bovine serum albumin (BSA) followed by magnetic separation of the microparticles and removal of the supernatant. This sequence was repeated three times and the microparticles were re-suspended in 0.1% SDS at pH 11. The microparticles were separated magnetically, and the supernatants were transferred to a 96 well plate and examined for fluorescence intensity.

## Nc1ncnc2c1ncn2[C@@H]1O[C@H](COP(=O)(O)OP(=O)(O)O)[C@@H](O)[C@H]1O [ADP, adenosine diphosphate]
[1]; 2 uM ADP, sample volume 5 μL
  FITC Signal Detected: 524
[1]; 2 uM ADP, sample volume 10 μL
  FITC Signal Detected: 579
[1]; 2 uM ADP, sample volume 20 μL
  FITC Signal Detected: 896
[1]; 10 uM ADP, sample volume 5 μL
  FITC Signal Detected: 525
[1]; 10 uM ADP, sample volume 10 μL
  FITC Signal Detected: 616
[1]; 10 uM ADP, sample volume 20 μL
  FITC Signal Detected: 1031
[2]
  FITC Signal Detected: 17349
[3]; 10 min. incubation
  FITC Signal Detected: 1235
[3]; 15 min. incubation
  FITC Signal Detected: 1526
[4]; 2 μM ADP, sample volume 10 μL
  FITC Signal Detected: 1544
[4]; 2 μM ADP, sample volume 20 μL
  FITC Signal Detected: 2390
[4]; 10 μM ADP, sample volume 10 μL
  FITC Signal Detected: 1749
[4]; 10 μM ADP, sample volume 20 μL
  FITC Signal Detected: 2747
